Values after ≈ are worked out from the molar mass of the structure shown. Values joined by “and” are separate entries in the source; they are usually repeats but may differ in a detail not shown here. Equal values may be shown once.
Target: T1, PTP1B (human, recombinant) (Homo sapiens, UniProt P18031)
T1 construct: purchased BIOMOL International LP (Plymouth Meeting, PA)
T1 sequence (P18031 1-435): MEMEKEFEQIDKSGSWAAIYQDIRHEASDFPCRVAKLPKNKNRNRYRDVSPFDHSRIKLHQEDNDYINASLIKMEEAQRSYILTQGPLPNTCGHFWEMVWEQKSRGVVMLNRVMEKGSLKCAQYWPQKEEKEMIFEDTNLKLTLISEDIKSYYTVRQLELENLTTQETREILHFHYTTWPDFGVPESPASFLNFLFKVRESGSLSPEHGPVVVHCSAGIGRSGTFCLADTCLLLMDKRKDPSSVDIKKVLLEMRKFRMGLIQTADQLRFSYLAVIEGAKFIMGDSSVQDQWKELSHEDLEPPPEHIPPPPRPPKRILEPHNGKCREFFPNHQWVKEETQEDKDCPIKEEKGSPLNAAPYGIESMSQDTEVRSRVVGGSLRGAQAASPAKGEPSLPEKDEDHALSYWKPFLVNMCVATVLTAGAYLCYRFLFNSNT
Assay: PTP1B inhibition assay with pNPP as substrate
Assay type: biochemical
Conditions: for inhibition at 30 µg/mL / Inhibition % of PTP1B activity: at 30 μg/mL; for IC50: read-out: IC50 (PTP1B inhibitory activity) (converted)
Description: PTP1B (human, recombinant) was purchased from BIOMOL® International LP (Plymouth Meeting, PA). The enzyme activity was measured using p-nitrophenyl phosphate (pNPP) as a substrate. To each of 96 wells in a microtiter plate (final volume: 100 μL) was added 2 mM pNPP and PTP1B (0.05-0.1 μg) in a buffer containing 50 mM citrate (pH 6.0), 0.1 M NaCl, 1 mM EDTA, and 1 mM dithiothreitol (DTT) with or without test compounds. Following incubation at 37°C for 30 min, the reaction was terminated with 10 M NaOH. The amount of produced p-nitrophenol was estimated by measuring the absorbance at 405 nm. The non-enzymatic hydrolysis of 2 mM pNPP was corrected by measuring the increase in absorbance at 405 nm obtained in the absence of PTP1B enzyme.

[1] = na = not active (less than 50% inhibition at the level of 30 μg/mL)

SMILES | inhibition at 30 µg/mL [%] | also measured
C=C(C)[C@@H]1CC[C@]2(C(=O)O)CC[C@]3(C)[C@H](CC[C@@H]4[C@@]5(C)CC[C@H](O)C(C)(C)[C@@H]5CC[C@]43C)[C@@H]12 [Compound 1, betulinic acid] | 95.1 | IC50 [1]: 1.53 µM
C=C(C)[C@@H]1CC[C@]2(C(=O)OC)CC[C@]3(C)[C@H](CC[C@@H]4[C@@]5(C)CC[C@H](O)C(C)(C)[C@@H]5CC[C@]43C)[C@@H]12 [Compound 2, betulinic acid methyl ester] | 89.4 | IC50 [1]: 1.98 µM and 1.91 µM
C=C1CC[C@H]2C(=C)CC[C@@H]3[C@H](OC(=O)[C@H]3C)[C@@H]12 [Compound 3, mokko lactone] | 93.1 | IC50 [1]: 6.07 µM and 6.03 µM
C=C1CC[C@H]2C(=C)CC[C@H]3C(=C)C(=O)O[C@@H]3[C@@H]12 [Compound 4, dehydrocostuslactone] | 86.2 | IC50 [1]: 28.3 µM and 28.2 µM
C=C1C(=O)O[C@@H]2/C=C(\C)CC/C=C(\C)CC[C@@H]12 [Compound 5, costunolide] | < 50 | –
C/C1=C\[C@H]2OC(=O)[C@@H](C)[C@@H]2CC/C(C)=C/CC1 [Compound 6, 11β,13-dihydrocostunolide] | < 50 | –
C=C1CC[C@@H](O)[C@]2(C)CC[C@H]3C(=C)C(=O)O[C@@H]3[C@@H]12 [Compound 7, reynosin] | < 50 | –
C=C1C(=O)O[C@@H]2[C@@H]3[C@@](C)(CC[C@@H]12)[C@H](O)CC[C@@]3(C)O [Compound 8, 1β-hydroxy arbusculin A] | < 50 | –
C=C1C(=O)O[C@@H]2[C@H]3C(C)=CC[C@@H](O)[C@]3(C)CC[C@@H]12 [Compound 9, santamarine] | < 50 | –
CC[C@H](CC[C@@H](C)[C@H]1CC[C@H]2[C@@H]3CC=C4C[C@@H](O)CC[C@]4(C)[C@H]3CC[C@]12C)C(C)C [Compound 11, β-sitosterol] | < 50 | –
C=CCCCCC/C=C\C/C=C\C/C=C\CC [Compound 12, aplotaxene] | – | Inhibition % of PTP1B activity: < 50.0%
CCCCCCCCCCCCCCCCCC(=O)O[C@H]1CC[C@]2(C)[C@H]3CC=C4[C@@H]5[C@@H](C)[C@H](C)CC[C@]5(C)CC[C@@]4(C)[C@]3(C)CC[C@H]2C1(C)C [Compound 13, α-amyrin stearate] | – | Inhibition % of PTP1B activity: < 50.0%
CCCCCCCCCCCCCCCC(=O)C1=C(O)C(CO)OC1=O (stereo not shown) [RK-682, reference compound] | – | Inhibition % of PTP1B activity: 98.5%; IC50 (PTP1B inhibitory activity) [1]: 1.2 ± 0.09 µg/mL (≈ 3.26 µM)
C[C@H]1[C@H](C)CC[C@]2(C(=O)O)CC[C@]3(C)C(=CC[C@@H]4[C@@]5(C)CC[C@H](O)C(C)(C)[C@@H]5CC[C@]43C)[C@H]12 [Ursolic acid, reference compound] | 99 | –

Reference: article PMC6267619, “Isolation of Betulinic Acid, its Methyl Ester and Guaiane Sesquiterpenoids with Protein Tyrosine Phosphatase 1B Inhibitory Activity from the Roots of Saussurea lappa C.B.Clarke” (Molecules, 2008)
